This is an account of results in patent US6197826A, “α-(2-hydroxyphenyl) nitrone compounds, pharmaceutical compositions containing the same and methods for treating inflammation” (Centaur Pharmaceuticals, Inc., priority 1999, dated 2001).

In experiment [1] the test system is cyclooxygenase 1 (COX-1). The settings on record: 300 μM; COX-1 from ram seminal vesicles. The protocol: (§1) In this experiment, nitrones of formula I were tested to determine if they inhibit the enzymes cyclooxygenase 1 (COX-1) and cyclooxygenase 2 (COX-2). The inhibition of COX-1 was measured by incubating arachidonic acid with COX-1 dervied from ram seminal vesicles. The inhibition of COX-2 was measured by incubation of arachidonic acid with COX-2 derived from sheep placenta. These assays are further described in Evans et al., Biochem. Pharmacol., 36:2035, 1987. In each assay, the formation of prostaglandin E2 (PGE2) was measured by spectrophotometric quantitation of malondialdehyde. The compounds to be tested were added to incubation solutions at a concentration of 300 μM.

In experiment [2] the test system is cyclooxygenase 2 (COX-2). The settings on record: 300 μM; COX-2 from sheep placenta. As to the method:
as §1

Take `COc1ccc2c(c1)c(CC(=O)O)c(C)n2C(=O)c1ccc(Cl)cc1` [indomethacin]: the “inhibition of COX-1” value in experiment [1] is given as “completely inhibits”. For the same compound, in experiment [2], the “inhibition of COX-2” value is listed as “completely inhibits”.
